Target: T1, Pnao (Pseudomonas putida, UniProt F8G0P1)
T1 construct: dimer
Experiment: FAD reduction at […] nm (stopped-flow); FAD-binding ratio by HPLC
Settings: FAD co-purified with the enzyme

T1 sequence (F8G0P1 whole entry): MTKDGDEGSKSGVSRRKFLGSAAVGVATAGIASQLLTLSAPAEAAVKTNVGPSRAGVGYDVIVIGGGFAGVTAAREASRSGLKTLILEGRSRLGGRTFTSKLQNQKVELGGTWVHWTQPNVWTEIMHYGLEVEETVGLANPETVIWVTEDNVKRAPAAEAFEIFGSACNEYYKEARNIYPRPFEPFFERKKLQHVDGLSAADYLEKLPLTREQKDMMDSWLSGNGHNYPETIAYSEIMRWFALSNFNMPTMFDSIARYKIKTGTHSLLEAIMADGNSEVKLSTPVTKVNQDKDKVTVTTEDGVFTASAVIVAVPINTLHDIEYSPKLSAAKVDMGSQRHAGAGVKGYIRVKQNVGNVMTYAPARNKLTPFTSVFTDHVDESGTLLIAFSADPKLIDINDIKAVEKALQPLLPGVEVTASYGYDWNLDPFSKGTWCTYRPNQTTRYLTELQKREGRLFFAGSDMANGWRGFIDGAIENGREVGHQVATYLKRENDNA

Cc1cc2nc3c(=O)[nH]c(=O)nc-3n(C[C@H](O)[C@H](O)[C@H](O)COP(=O)(O)OP(=O)(O)OC[C@H]3O[C@@H](n4cnc5c(N)ncnc54)[C@H](O)[C@@H]3O)c2cc1C [FAD, flavin adenine dinucleotide]
FAD reduction at 450 nm (stopped-flow); FAD-binding ratio by HPLC: the enzyme-bound FAD is transformed from the oxidized to the hydroquinone

— paper PMC11481913, “Rational design of a flavoenzyme for aerobic nicotine catabolism” (mBio, 2024)
